In patent US20240374738A1, “BIFUNCTIONAL COMPOUND CAPABLE OF DEGRADING RECEPTOR TYROSINE KINASE AND APPLICATION THEREOF” (TAIBIDI PHARMACEUTICAL TECHNOLOGY (SHIJIAZHUANG) CO., LTD., priority 2023, published 2024) one finds Dmax and IC50 data, which are given here for 17 compounds.

Format in all cases: cell-based
Assay [1] deals with DDR1 (Homo sapiens, UniProt Q08345). The assay can be described thus: Degradation of DDR1 in tumor cell MKN45 (Western blot). The arrangement: The degradation activity of the compounds against DDR1 in the MKN45 cell line; endogenous in cells; host or cells: MKN45. The conditions noted are these: MKN-45, maximum degradation percentage, MKN45 cells, 24 hours. The procedure:
Western blot experiment: Take gastric cancer cells (MKN45) and inoculate them into a 6-well plate at a concentration of […], adding 2 ml to each well and incubating for 24 hours.
The next day, observe the cells under a microscope to confirm their status. Prepare compounds, weigh a certain amount of the series compounds or reference drug cabozantinib from this patent, first prepare a high concentration mother liquor with pure DMSO, and use gradient dilution method to prepare compound concentrations of 2 mM, 200 μM, 100 μM, 20 μM, 2 μM, 200 nM, and 0 nM. The final concentration of DMSO is 0.5%. Shake to thoroughly mix. Add 10 μl of solution to each well. After incubation for 24 hours, remove the cells and use a pipette to aspirate the suspended cells into a 1.5 ml centrifuge tube. Centrifuge at 5000 rpm for 10 minutes to precipitate the cells. Carefully remove the cell precipitate from the culture medium, add 1 ml of PBS and shake slightly. After repeated cleaning for 3 times, dry the residue. Add 150 μl of RIPA lysate pre mixed with 1% PMSF, blow to allow the lysate to fully contact the cells, and incubate on ice for 10 minutes. Centrifuge at 12000 rpm for 10 minutes, extract the supernatant, use the BCA protein quantification kit to determine and homogenize the sample loading.
Mix BCA-A in a 50:1 ratio Prepare working solution with B solution, dilute the sample by 5 times, then pipette 20 μl onto a 96 well ELISA plate. Add 200 μl of pre mixed BCA working solution and incubate at 37° C. for 20 minutes. Measure the A562 nm absorbance value using an ELISA reader and substitute it into the protein standard curve formula to obtain the sample concentration. After calculating the required volume for loading […] of sample, divide the sample into 1.5 ml centrifuge tubes. Add 10 μl of sample buffer to each tube and mix well. Heat in a 95° C. metal bath for 5 minutes to denature the protein.
Take 4-20% gradient pre adhesive and fix it on the adhesive rack. Add electrophoresis solution to the slot and remove the comb, Marker and protein samples were loaded, and after 30 minutes of electrophoresis at 80V, the voltage was adjusted to 120V for electrophoresis, The marker band stops electrophoresis at the forefront of the gel. Take out the adhesive block and cut it to the appropriate size, The PVDF membrane was cut and activated in methanol, and after activation, the PVDF membrane was equilibrated in a membrane transfer equilibrium solution for 1 minute. Using sponge pads The sequence of PVDF film, adhesive, and sponge pad is placed in the splint and placed in the eBlot equipment for rapid wet rotation. Remove the membrane and seal it in 5% skim milk powder dissolved in 1×TBST for 1 hour. Cut the membrane according to the molecular weight of the target protein and internal reference protein, and place it in primary antibody diluted with 1×TBST. Shake overnight at 4° C.
The next day, transfer the band to 1×TBST for 3 washes, then add a specific dilution of the secondary antibody and shake it for 1.5 hours. Transfer the band again to 1×TBST for 3 washes, prepare ECL color solution, place the membrane in the imaging system, cover the surface with ECL color solution, and take photos of the membrane using the imaging system.
Using the SHST analysis system to analyze the results, measure the grayscale values of each band of the target protein and internal reference protein. Normalize the grayscale values of the target protein/corresponding lane GAPDH grayscale values, and perform quantitative analysis according to the protein amount=experimental group grayscale value/blank control group grayscale value.
The activity of the compound of the present invention in degrading DDR in tumor cell line MKN45 was measured. […]
(Immunoblotting shows a protein as a band on a membrane.)

Assay [2] has as its system MKN45. The assay is described as follows: Growth inhibition of gastric cancer cells MKN45 (CCK-8). The conditions noted are these: Homo sapiens, MKN-45, half inhibitory concentration, 72 hours. The method, then: (§1) Inoculate gastric cancer cells (SNU5 or MKN45) into a 96 well plate at a concentration of […], with 100 μl added to each well. Incubate for 30 minutes. Observe the cell status under a microscope. Prepare compounds, weigh a certain amount of the series compounds or reference drug cabozantinib of this patent, first prepare a high concentration mother liquor with pure DMSO, and use gradient dilution method to prepare a concentration of 200 μM, 60 μM, 20 μM, 6 μM, 2 μM, 600 nM, 200 nM, 0 nM drug solution, shake to make it fully mixed. The control group was prepared with cabozantinib using the same solvent and method.
(§2) After preparation, add 1 μl of drug solution to each well of the 96 well plate, and then add 100 μl of culture medium. Repeat each dose three times. Gently shake to allow the cells and medication to come into full contact and incubate in the incubator for 72 hours. 72 hours later, remove and color with CCK-8 reagent kit. Add 20 μl of CCK-8 reagent to each well, gently shake well, and incubate in the incubator for 1 hour. After 1 hour, remove and measure the absorbance of each well using an enzyme-linked immunosorbent assay (ELISA) reader at a wavelength of 450 nm.
(§3) According to the formula: Cell growth inhibition rate=[1−(absorbance of experimental group absorbance of culture medium control group)/(absorbance of blank control group−absorbance of culture medium control group)]×100%. It can be concluded that the compound has the ability to inhibit the growth of gastric cancer cells at the current dose and time.
(§4) Draw a graph based on the gradient of concentration and use GraphPad Prism 9 software (GraphPad Software, La Jolla, CA) to calculate the maximum inhibitory concentration (IC50) at 50%.
(§5) Referring to steps 1 and 2 of this embodiment, the inhibitory effect of the compound of the present invention on the growth of cancer cells and the degradation effect of target proteins were measured, and the following results were obtained (see Table 2 below).
(§6) The growth inhibitory effects of the compound of the present invention on tumor cell lines MKN45 and SNU5 were measured. The activity is expressed as half inhibitory concentration (C50). The results are shown in Table 2 below; When the half inhibitory concentration is less than or equal to 100 nM, the compound activity is labeled as “++++”; When the half inhibitory concentration is greater than 100 nM and less than 500 nM, the compound activity is labeled as […] and less than 1000 nM, the compound activity is labeled as “++”; When the half inhibitory concentration is greater than 1000 nM and less than 3000 nM, the compound activity is marked as “+”; When the half inhibitory concentration is greater than 3000 nM, the compound activity is marked as […]

Assay [3] deals with SNU5. The assay can be described thus: Growth inhibition of gastric cancer cells SNU5 (CCK-8). The following applies: Homo sapiens, SNU-5, half inhibitory concentration, 72 hours. The procedure:
as §1, §2, §3, §4, §5, §6

Usually Dmax stands for the greatest extent of degradation seen. A higher Dmax goes with a fuller loss of target. As usually defined, the IC50 is the point on the concentration scale where inhibition reaches its midpoint. Low readings indicate greater potency in that assay, high ones weaker potency in that assay.

Chain of DDR1 (Q08345 19-913): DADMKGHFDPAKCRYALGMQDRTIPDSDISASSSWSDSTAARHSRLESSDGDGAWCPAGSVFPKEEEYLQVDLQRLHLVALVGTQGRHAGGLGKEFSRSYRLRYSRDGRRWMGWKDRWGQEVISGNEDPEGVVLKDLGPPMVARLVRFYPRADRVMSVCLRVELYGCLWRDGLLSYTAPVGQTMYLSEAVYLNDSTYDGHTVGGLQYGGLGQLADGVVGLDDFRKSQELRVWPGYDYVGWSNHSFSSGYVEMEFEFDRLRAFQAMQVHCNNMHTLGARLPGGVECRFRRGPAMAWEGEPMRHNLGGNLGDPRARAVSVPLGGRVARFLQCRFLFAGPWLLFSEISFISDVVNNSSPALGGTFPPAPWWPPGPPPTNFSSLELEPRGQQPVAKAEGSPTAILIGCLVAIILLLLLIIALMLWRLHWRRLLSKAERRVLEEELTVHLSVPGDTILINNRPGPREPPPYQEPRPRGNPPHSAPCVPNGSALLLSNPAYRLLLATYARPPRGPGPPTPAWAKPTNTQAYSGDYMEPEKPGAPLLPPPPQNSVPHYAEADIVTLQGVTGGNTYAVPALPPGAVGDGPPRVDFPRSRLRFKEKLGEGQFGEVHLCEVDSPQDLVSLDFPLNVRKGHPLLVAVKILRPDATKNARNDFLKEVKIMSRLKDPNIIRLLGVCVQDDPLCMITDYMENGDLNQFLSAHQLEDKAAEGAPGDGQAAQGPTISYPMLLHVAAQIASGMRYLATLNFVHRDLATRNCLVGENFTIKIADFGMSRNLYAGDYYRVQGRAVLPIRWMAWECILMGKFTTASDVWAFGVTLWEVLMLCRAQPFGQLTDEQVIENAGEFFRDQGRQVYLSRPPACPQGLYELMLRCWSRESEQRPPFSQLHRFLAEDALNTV

In turn, `COc1cc2c(Oc3ccc(NC(=O)C4(C(=O)Nc5ccc(F)cc5)CC4)cc3)ccnc2cc1N1CCC(CN2C[C@H]3C[C@@H]2CN3CCC(=O)Nc2cc3c(cn2)C(=O)N(C2CCC(=O)NC2=O)C3)CC1` (stereo partly drawn) [TPD12110] returned a Dmax in assay [1] of 75 to 85%. The half-maximal inhibitory concentration (IC50) in assay [2] and in assay [3] was not above 100 nM each time.

In assay [1], `COc1cc2c(Oc3ccc(NC(=O)C4(C(=O)Nc5ccc(F)cc5)CC4)cc3)ccnc2cc1N1CCC(CN2CCC(OCC(=O)N[C@H](C(=O)N3C[C@H](O)C[C@H]3C(=O)NCc3ccc(-c4scnc4C)cc3)C(C)(C)C)CC2)CC1` [TPD5407] returned a Dmax of 75 to 85%. Besides, the half-maximal inhibitory concentration (IC50) fell in the range of 100 to 500 nM in assay [2] and 500 to 1000 nM in assay [3].

As to `COc1cc2c(Oc3ccc(NC(=O)C4(C(=O)Nc5ccc(F)cc5)CC4)cc3)ccnc2cc1N1CCC(C(=O)NCCCCC(=O)N[C@H](C(=O)N2C[C@H](O)C[C@H]2C(=O)NCc2ccc(-c3scnc3C)cc2)C(C)(C)C)CC1` [TPD5453], the Dmax in assay [1] fell in the range of 75 to 85%. Besides, the IC50 fell in the range of 1000 to 3000 nM in assay [2] and 500 to 1000 nM in assay [3].

Regarding `COc1cc2c(Oc3ccc(NC(=O)C4(C(=O)Nc5ccc(F)cc5)CC4)cc3)ccnc2cc1N1CCC(OCC(=O)N[C@H](C(=O)N2C[C@H](O)C[C@H]2C(=O)NCc2ccc(-c3scnc3C)cc2)C(C)(C)C)CC1` [TPD5411], the Dmax in assay [1] lay in the range of 75 to 85%. Also, the IC50 in assay [2] and in assay [3] was 100 to 500 nM throughout.

`COc1cc2c(Oc3ccc(NC(=O)C4(C(=O)Nc5ccc(F)cc5)CC4)cc3)ccnc2cc1COCCN1CCN(C(=O)CNc2cccc3c2C(=O)N(C2CCC(=O)NC2=O)C3=O)CC1` (stereo not drawn) [TPD5317]: the Dmax in assay [1] was 65 to 75%. In addition, the IC50 in assay [2] and in assay [3] was 100 to 500 nM each time.

In turn, `COc1cc2c(Oc3ccc(NC(=O)C4(C(=O)Nc5ccc(F)cc5)CC4)cc3)ccnc2cc1N1CCC(CN2CC3CC(C2)N3CCNc2cc3c(cn2)C(=O)N(C2CCC(=O)NC2=O)C3)CC1` (stereo not drawn) [TPD12082] displayed a Dmax in assay [1] of 65 to 75%. Also, the IC50 in assay [2] is 100 to 500 nM; in assay [3], not above 100 nM.

As to `COc1cc2c(Oc3ccc(NC(=O)C4(C(=O)Nc5ccc(F)cc5)CC4)cc3)ccnc2cc1N1CCC(CN2CCN(CC(=O)Nc3cccc4c3CN(C3CCC(=O)NC3=O)C4=O)CC2)CC1` (stereo not drawn) [TPD5901], in assay [1], the Dmax was more than 85%. Besides, the IC50 in assay [2] and in assay [3] was not above 100 nM each time.

In assay [1], `COc1cc2c(Oc3ccc(NC(=O)C4(C(=O)Nc5ccc(F)cc5)CC4)cc3)ccnc2cc1N1CCC(CN2C[C@H]3C[C@@H]2CN3CCNc2cc3c(cn2)C(=O)N(C2CCC(=O)NC2=O)C3)CC1` (stereo partly drawn) [TPD12097] yielded a Dmax of 65 to 75%. In addition, the concentration for half-maximal inhibition (IC50) in assay [2] and in assay [3] was not above 100 nM each time.

In turn, `COc1cc2c(Oc3ccc(NC(=O)C4(C(=O)Nc5ccc(F)cc5)CC4)cc3)ccnc2cc1NC(=O)c1cnc(N2CCC(CN3CCN(c4ccc5c(c4)C(=O)N(C4CCC(=O)NC4=O)C5=O)CC3)CC2)nn1` (stereo not drawn) [TPD5714] came in with a Dmax in assay [1] of 65 to 75%. In addition, the IC50 in assay [2] is 100 to 500 nM; in assay [3] it was not above 100 nM.

For the compound `COc1cc2c(Oc3ccc(NC(=O)C4(C(=O)Nc5ccc(F)cc5)CC4)cc3)ccnc2cc1N1CCC(CC(=O)N[C@H](C(=O)N2C[C@H](O)C[C@H]2C(=O)NCc2ccc(-c3scnc3C)cc2)C(C)(C)C)CC1` [TPD5410], the Dmax in assay [1] lay in the range of 65 to 75%. Further, the IC50 in assay [2] and in assay [3] was not above 100 nM throughout.

Consider `COc1cc2c(Oc3ccc(NC(=O)C4(C(=O)Nc5ccc(F)cc5)CC4)cc3)ccnc2cc1N1CCC(CN2CC(N[C@H](C(=O)N3C[C@H](O)C[C@H]3C(=O)NCc3ccc(-c4scnc4C)cc3)C(C)(C)C)C2)CC1` [TPD5431], for which the Dmax in assay [1] lay within 65 to 75%. The IC50 in assay [2] and in assay [3] was 1000 to 3000 nM in each case.

Turning to `COc1cc2c(Oc3ccc(NC(=O)C4(C(=O)Nc5ccc(F)cc5)CC4)cc3)ccnc2cc1COCCN1CCC(CCNc2cccc3c2C(=O)N(C2CCC(=O)NC2=O)C3=O)CC1` (stereo not drawn) [TPD5313], in assay [1], the Dmax is 65 to 75%. For the same compound, the IC50 in assay [2] and in assay [3] was 100 to 500 nM each time.

In assay [1], `COc1cc2c(Oc3ccc(NC(=O)C4(C(=O)Nc5ccc(F)cc5)CC4)cc3)ccnc2cc1N1CCC(N2CCC(C(=O)N[C@H](C(=O)N3C[C@H](O)C[C@H]3C(=O)NCc3ccc(-c4scnc4C)cc3)C(C)(C)C)CC2)CC1` [TPD5420] displayed a Dmax of 65 to 75%. The IC50 lay within 1000 to 3000 nM in assay [2] and 500 to 1000 nM in assay [3].

In turn, `COc1cc2c(Oc3ccc(NC(=O)C4(C(=O)Nc5ccc(F)cc5)CC4)cc3)ccnc2cc1N1CCC(CN2CCN(CCNc3nccc4c3CN(C3CCC(=O)NC3=O)C4=O)CC2)CC1` (stereo not drawn) [TPD12001] displayed a Dmax in assay [1] of 65 to 75%. For the same compound, the IC50 in assay [2] and in assay [3] was not above 100 nM in each case.

The compound `COc1cc2c(Oc3ccc(NC(=O)C4(C(=O)Nc5ccc(F)cc5)CC4)cc3)ccnc2cc1N1CCN(CCCC(=O)N[C@H](C(=O)N2C[C@H](O)C[C@H]2C(=O)NCc2ccc(-c3scnc3C)cc2)C(C)(C)C)CC1` [TPD5457] returned a Dmax in assay [1] of 75 to 85%. Also, the IC50 in assay [2] and in assay [3] was not above 100 nM throughout.

As to `COc1cc2c(Oc3ccc(NC(=O)C4(C(=O)Nc5ccc(F)cc5)CC4)cc3)ccnc2cc1N1CCC(N2CCN(C(=O)CCOCC(=O)N[C@H](C(=O)N3C[C@H](O)C[C@H]3C(=O)NCc3ccc(-c4scnc4C)cc3)C(C)(C)C)CC2)CC1` [TPD5495], in assay [1], the greatest degradation seen (Dmax) lay in the range of 75 to 85%. Further, the IC50 in assay [2] and in assay [3] was 100 to 500 nM in each case.

On to `COc1cc2c(Oc3ccc(NC(=O)C4(C(=O)Nc5ccc(F)cc5)CC4)cc3)ccnc2cc1N1CCC(CN2CCC(N3CCN(c4cccc5c4CN(C4CCC(=O)NC4=O)C5=O)CC3)CC2)CC1` (stereo not drawn) [TPD5907], for which, in assay [1], the maximal degradation (Dmax) is more than 85%. In addition, the IC50 in assay [2] and in assay [3] was not above 100 nM throughout.
